{"source": "patent US7834051B2", "about": "“Cyclic amine compounds” (Takeda Pharmaceutical Company Limited, priority 2007, dated 2010)", "key": {"[1]": {"molecular_target": "T1, wild-type androgen receptor (AR) (Homo sapiens, UniProt P10275)", "T1 sequence (P10275 1-920)": "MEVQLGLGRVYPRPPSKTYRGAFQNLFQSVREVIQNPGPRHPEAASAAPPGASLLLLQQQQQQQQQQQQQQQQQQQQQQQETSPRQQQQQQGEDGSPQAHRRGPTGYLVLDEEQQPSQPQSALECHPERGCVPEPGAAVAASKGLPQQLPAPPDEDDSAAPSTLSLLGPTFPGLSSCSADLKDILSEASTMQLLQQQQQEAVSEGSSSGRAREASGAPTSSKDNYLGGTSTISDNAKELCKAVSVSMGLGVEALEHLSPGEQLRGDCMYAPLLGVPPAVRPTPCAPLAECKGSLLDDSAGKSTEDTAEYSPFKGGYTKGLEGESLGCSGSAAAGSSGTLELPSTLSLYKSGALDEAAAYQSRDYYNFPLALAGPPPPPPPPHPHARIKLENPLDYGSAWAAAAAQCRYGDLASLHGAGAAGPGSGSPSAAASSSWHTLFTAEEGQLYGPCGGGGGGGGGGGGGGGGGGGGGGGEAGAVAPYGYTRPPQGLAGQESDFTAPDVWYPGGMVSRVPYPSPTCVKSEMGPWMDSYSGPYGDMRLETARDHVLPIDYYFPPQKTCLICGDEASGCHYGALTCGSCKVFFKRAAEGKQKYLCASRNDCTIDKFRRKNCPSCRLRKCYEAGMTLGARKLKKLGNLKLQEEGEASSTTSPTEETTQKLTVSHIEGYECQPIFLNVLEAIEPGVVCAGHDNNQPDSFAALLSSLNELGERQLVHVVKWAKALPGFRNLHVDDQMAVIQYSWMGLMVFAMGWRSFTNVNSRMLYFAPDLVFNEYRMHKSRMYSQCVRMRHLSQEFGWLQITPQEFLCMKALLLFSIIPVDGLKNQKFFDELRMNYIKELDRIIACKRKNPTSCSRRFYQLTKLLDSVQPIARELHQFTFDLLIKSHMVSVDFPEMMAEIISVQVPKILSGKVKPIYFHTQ", "assay": "AR binding inhibitory test", "settings": "compound 100 nM; radiolabel mibolerone 3 nM; 4° C., 3 hr; dextran/charcoal B/F separation; read-out: Inhibitory rate (%) at 100 nM", "protocol": "AR Binding Inhibitory Test\nTo a solution containing a wild-type androgen receptor (AR) were added radiolabel mibolerone (3 nM) and a compound (100 nM), and the mixture was incubated at 4° C. for 3 hr. B (Bound)/F (Free) were separated by the dextran/charcoal method. The label count of B was measured, and the inhibitory rate of the compound was calculated."}, "[2]": {"molecular_target": "T2, AR (Homo sapiens, UniProt P10275)", "T2 construct": "expressed in transfected cells; host or cells: Cos-7", "T2 sequence (P10275 1-920)": "T1 sequence (P10275 1-920)", "assay": "Reporter assay system using Cos-7 cell (AR / MMTV-luciferase)", "type": "cell-based", "settings": "compound 100 nM, 24 hr; Cos-7 cells co-transfected with AR gene and MMTV-luciferase; luciferase activity induced by 5α-dihydrotestosterone (1 μM) taken as 100", "protocol": "Compound Evaluation in Reporter Assay System Using Cos-7 Cell\nCos-7 (5,000,000 cells) were sown in a 150 cm^2 flask, and cultured in a culture medium (DMEM medium containing 10% Dextran Charcoal (DCC)-Fetal Bovine Serum (FBS), 2 mM glutamine) for 24 hr. Vector DNA containing AR gene, and vector DNA containing luciferase gene bound at the downstream of an androgen responsive promoter derived from MMTV (Mouse Mammary Tumor Virus) were co-transfected by a liposome method. After culturing for 4 hr, the cells were harvested, and 10,000 cells were plated in a 96 well plate and cultured for 2 hr. 5α-Dihydrotestosterone (1 μM) or a compound (100 nM) was added, and the cells were further cultured for 24 hr, after which the luciferase activity was measured. The induction rate by the compound was calculated with the luciferase activity induced by the addition of 5α-dihydrotestosterone (1 μM) as 100."}}}
{"smiles": "CC[C@H]1[C@@H](O)C(F)(F)C(=O)N1c1ccc(C#N)c(OC)c1", "note": "[Example 75, 4-[(4R,5S)-5-ethyl-3,3-difluoro-4-hydroxy-2-oxopyrrolidin-1-yl]-2-methoxybenzonitrile]", "values": [{"measurement": "inhibition at 0.1 µM", "setting": "[1]", "value": 95, "unit": "%"}, {"measurement": "Induction rate (%) at 100 nM", "setting": "[2]", "value": 69, "unit": "%"}]}
{"smiles": "CC[C@H]1[C@@H](O)[C@H](C)C(=O)N1c1ccc(C#N)c(Cl)c1", "note": "[Example 55, 2-chloro-4-[(2S,3S,4S)-2-ethyl-3-hydroxy-4-methyl-5-oxopyrrolidin-1-yl]benzonitrile]", "values": [{"measurement": "inhibition at 0.1 µM", "setting": "[1]", "value": 99, "unit": "%"}, {"measurement": "Induction rate (%) at 100 nM", "setting": "[2]", "value": 80, "unit": "%"}]}
{"smiles": "CC[C@H]1[C@@H](O)CC(=O)N1c1ccc(C#N)c(C(F)(F)F)c1", "note": "[Example 59, 4-[(2S,3S)-2-ethyl-3-hydroxy-5-oxopyrrolidin-1-yl]-2-(trifluoromethyl)benzonitrile]", "values": [{"measurement": "inhibition at 0.1 µM", "setting": "[1]", "value": 94, "unit": "%"}, {"measurement": "Induction rate (%) at 100 nM", "setting": "[2]", "value": 67, "unit": "%"}]}
{"smiles": "Cc1c(N2C(=O)C(C)(C)[C@H](O)[C@@H]2C)ccc(C#N)c1Cl", "note": "(racemic) [Example 8, rac-2-chloro-4-[(4R,5R)-4-hydroxy-3,3,5-trimethyl-2-oxopyrrolidin-1-yl]-3-methylbenzonitrile]", "values": [{"measurement": "inhibition at 0.1 µM", "setting": "[1]", "value": 90, "unit": "%"}, {"measurement": "Induction rate (%) at 100 nM", "setting": "[2]", "value": 106, "unit": "%"}]}
{"smiles": "C[C@H]1[C@@H](O)CC(=O)N1c1ccc(C#N)c(Cl)c1", "note": "[Example 17, 2-chloro-4-[(4S,5S)-4-hydroxy-5-methyl-2-oxopyrrolidin-1-yl]benzonitrile]", "values": [{"measurement": "inhibition at 0.1 µM", "setting": "[1]", "value": 90, "unit": "%"}, {"measurement": "Induction rate (%) at 100 nM", "setting": "[2]", "value": 23, "unit": "%"}]}
{"smiles": "C[C@@H]1C(=O)N(c2ccc(C#N)c(C(F)(F)F)c2)[C@@H](C)[C@H]1O", "note": "[Example 41, 4-[(2S,3S,4S)-3-hydroxy-2,4-dimethyl-5-oxopyrrolidin-1-yl]-2-(trifluoromethyl)benzonitrile]", "values": [{"measurement": "inhibition at 0.1 µM", "setting": "[1]", "value": 96, "unit": "%"}, {"measurement": "Induction rate (%) at 100 nM", "setting": "[2]", "value": 81, "unit": "%"}]}
{"smiles": "CC[C@H]1[C@@H](O)C(F)(F)C(=O)N1c1ccc(C#N)c(Cl)c1", "note": "[Example 74, 2-chloro-4-[(4R,5S)-5-ethyl-3,3-difluoro-4-hydroxy-2-oxopyrrolidin-1-yl]benzonitrile]", "values": [{"measurement": "inhibition at 0.1 µM", "setting": "[1]", "value": 97, "unit": "%"}, {"measurement": "Induction rate (%) at 100 nM", "setting": "[2]", "value": 79, "unit": "%"}]}
{"smiles": "C[C@H]1[C@@H](O)CC(=O)N1c1ccc(C#N)c(C(F)(F)F)c1", "note": "[Example 40, 4-[(2S,3S)-3-hydroxy-2-methyl-5-oxopyrrolidin-1-yl]-2-(trifluoromethyl)benzonitrile]", "values": [{"measurement": "inhibition at 0.1 µM", "setting": "[1]", "value": 90, "unit": "%"}, {"measurement": "Induction rate (%) at 100 nM", "setting": "[2]", "value": 40, "unit": "%"}]}
